The subject of test [1] is Canis familiaris. Put plainly: Diuretic activity in dog assessed as […] urine volume at 5 mg/kg, iv relative to control. In kind it is functional, Canis lupus familiaris.
The test system of test [2] is Rattus norvegicus. Put plainly: Natriuretic activity in rat assessed as per cage at 3 mg/kg, po. It counts as functional.
Test [3] deals with Rattus norvegicus. Put plainly: Natriuretic activity in rat assessed as per cage at 9 mg/kg, po. In kind it is functional.
Test [4] deals with Rattus norvegicus. Put plainly: Natriuretic activity in rat assessed as per cage at 27 mg/kg, po. In kind it is functional.
Test [5] relates to Rattus norvegicus. The test can be described thus: Natriuretic activity in rat assessed as per cage at 81 mg/kg, po. It counts as functional.
For test [6], the system named is Pan troglodytes. The test can be described thus: Natriuretic activity in chimpanzee assessed as per min at 5 mg/kg, po. In kind it is functional.
Test [7] concerns Pan troglodytes. Put plainly: Natriuretic activity in chimpanzee assessed as change in Curate to Cinsulin ratio at 5 mg/kg, po. It counts as functional.
The test system of test [8] is Canis familiaris. Put plainly: Diuretic activity in dog assessed as sodium level in urine per min at 5 mg/kg, iv relative to control. In kind it is functional, Canis lupus familiaris.
In test [9] the test system is Canis familiaris. The test can be described thus: Diuretic activity in dog assessed as chloride level in urine per min at 5 mg/kg, iv relative to control. In kind it is functional, Canis lupus familiaris.
In test [10] the test system is Canis familiaris. Put plainly: Diuretic activity in dog assessed as potassium level in urine per min at 1 mg/kg, iv relative to control. It counts as functional, Canis lupus familiaris.
The subject of test [11] is Canis familiaris. Put plainly: Diuretic activity in dog assessed as chloride level in urine per min at 1 mg/kg, iv relative to control. It counts as functional, Canis lupus familiaris.
In test [12] the test system is Canis familiaris. Put plainly: Diuretic activity in dog assessed as […] urine volume at 1 mg/kg, iv relative to control. In kind it is functional, Canis lupus familiaris.
The test system of test [13] is Canis familiaris. Put plainly: Diuretic activity in dog assessed as sodium level in urine per min at 1 mg/kg, iv relative to control. It counts as functional, Canis lupus familiaris.

SMILES strings stand for the structures.

Regarding `Cc1c(OCC(=O)O)cc2c(c1Cl)C(=O)C(C)(c1ccccc1)C2` (configuration not stated), the Activity in [1] was found to be 4 mL; in test [2] it was 1.35 mEq; in test [3], 1.16 mEq; in test [4], 1.38 mEq; in test [5] it was 1.62 mEq; in [6], 479 uEq. Also, the values for the Activity in test [8] and in test [9] were 226 µEq/min and 262 µEq/min, respectively. In addition, the Ratio in test [7] came out at 0.31.

With `CCC1(c2ccccc2)Cc2cc(OCC(=O)O)c(Cl)c(Cl)c2C1=O` (configuration not stated), the Activity in test [1] worked out at 4 mL; in test [2], 0.75 mEq; in test [3], 1.15 mEq; in test [4] it was 1.19 mEq; in test [5], 1.34 mEq; in test [6], 369 uEq. For the same compound, the Activity in test [8] is 431 µEq/min; in test [9], 396 µEq/min. Besides, in [7], the Ratio is listed as 0.12.

With `O=C(O)COc1cc2c(c(Cl)c1Cl)C(=O)C(c1ccccc1)(C1CCCC1)C2` (configuration not stated), the Activity in test [1] stood at 0.8 mL; in test [2], 0.79 mEq; in [3], 0.4 mEq; in test [4] it was 0.31 mEq; in test [5], 0.35 mEq; in test [6], 47 uEq. In addition, the Activity in [8] was 11 µEq/min; in [9], 0.9 µEq/min. In [7], the Ratio was 0.

Regarding `O=C(O)COc1cc2c(c(Cl)c1Cl)C(=O)C(c1ccccc1)(c1ccccc1)C2`, the Activity is 2 mL in test [1]; 0.4 mEq in test [2]; 0.93 mEq in [3]; 1.09 mEq in [4]; 0.95 mEq in test [5]; 19 uEq in test [6]. The figures for the Activity in test [8] and in test [9] were 44 µEq/min and 5 µEq/min, respectively. For the same compound, the Ratio in [7] was 0.03.

For the compound `O=C(O)COc1cc2c(c(Cl)c1Cl)C(=O)C1(c3ccccc3)CCCCC21` (configuration not stated), the Activity was determined as 4 mL in test [1]; 0.47 mEq in test [2]; 0.65 mEq in [3]; 0.86 mEq in [4]; 1.17 mEq in test [5]; 137 uEq in test [6]. Besides, the Activity in test [8] turned out to be 276 µEq/min; in test [9], 211 µEq/min. Further, the Ratio in test [7] stood at 0.08.

Regarding `CC1(c2ccc(F)cc2)Cc2cc(OCC(=O)O)c(Cl)c(Cl)c2C1=O` (configuration not stated), the Activity was found to be 3 mL in [1]; 1.01 mEq in test [2]; 0.86 mEq in test [3]; 1.23 mEq in test [4]; 1.73 mEq in [5]; 310 uEq in test [6]. The Activity in [8] turned out to be 352 µEq/min; in test [9] it was 362 µEq/min. Also, in [7], the Ratio is 0.43.

As to `CC1(c2ccc(Cl)cc2)Cc2cc(OCC(=O)O)c(Cl)c(Cl)c2C1=O` (configuration not stated), the Activity in test [1] amounted to 6 mL; in test [2] it was 0.21 mEq; in test [3] it was 0.3 mEq; in [4], 0.25 mEq; in test [5] it was 0.37 mEq; in test [6], 302 uEq. Also, the Activity in [8] is 305 µEq/min; in test [9], 282 µEq/min. Further, the Ratio in test [7] turned out to be 0.25.

Regarding `CC1(c2ccc(Br)cc2)Cc2cc(OCC(=O)O)c(Cl)c(Cl)c2C1=O` (configuration not stated), the Activity in test [1] was determined as 3 mL; in test [2], 0.21 mEq; in test [3], 0.29 mEq; in test [4], 0.27 mEq; in test [5], 0.42 mEq; in test [6], 27 uEq. The Activity in test [8] came out at 96 µEq/min; in test [9] it was 34 µEq/min. Also, the Ratio in test [7] came to 0.01.

Regarding `COc1ccc(C2(C)Cc3cc(OCC(=O)O)c(Cl)c(Cl)c3C2=O)cc1` (configuration not stated), the Activity in test [2] was 0.45 mEq; in [3], 0.76 mEq; in [4], 1.29 mEq; in [6] it was 459 uEq. Further, in [7], the Ratio was determined as 0.01.

`CC1(c2cccs2)Cc2cc(OCC(=O)O)c(Cl)c(Cl)c2C1=O` (configuration not stated): the Activity in test [1] is 5 mL; in test [2] it was 0.46 mEq; in [3], 0.79 mEq; in test [4], 1.41 mEq; in [5], 1.77 mEq; in test [6] it was 416 uEq. For the same compound, the results for the Activity in [8] and in test [9] were 503 µEq/min and 598 µEq/min, respectively. Besides, the Ratio in [7] is reported as 0.47.

Turning to `CC1(c2ccc(N)cc2)Cc2cc(OCC(=O)O)c(Cl)c(Cl)c2C1=O` (configuration not stated), the Activity stood at 10 mL in test [1]; 0.33 mEq in [2]; 0.53 mEq in [3]; 0.98 mEq in test [4]; 1.34 mEq in test [5]; 244 uEq in test [6]. The Activity worked out at 1130 µEq/min in test [8] and 1180 µEq/min in test [9]. Also, in test [7], the Ratio turned out to be 0.1.

For the compound `CC1(c2ccc(O)cc2)Cc2cc(OCC(=O)O)c(Cl)c(Cl)c2C1=O` (configuration not stated), the Activity was 10 mL in test [1]; 0.17 mEq in [2]; 0.33 mEq in [3]; 0.35 mEq in test [4]; 151 uEq in [6]; 1260 µEq/min in test [8]. Further, the Activity in [9] amounted to 1460 µEq/min. Moreover, the Ratio in test [7] is given as 0.02.

As to `CC1(c2ccc(CN)cc2)Cc2cc(OCC(=O)[O-])c(Cl)c(Cl)c2C1=O.[Na+]` (configuration not stated), the Activity in [1] turned out to be 5 mL; in [2], 0.18 mEq; in [3] it was 0.17 mEq; in test [4], 0.27 mEq; in [5], 0.19 mEq; in test [6] it was 135 uEq. The figures for the Activity in test [8] and in test [9] were 497 µEq/min and 424 µEq/min, respectively. The Ratio in [7] amounted to 0.

In the case of `CC1(c2ccc([N+](=O)[O-])cc2)Cc2cc(OCC(=O)O)c(Cl)c(Cl)c2C1=O` (configuration not stated), the Activity in test [1] turned out to be 8 mL; in test [2] it was 0.89 mEq; in [3], 1.02 mEq; in test [4], 1.68 mEq; in test [5], 1.98 mEq; in [6], 176 uEq. Further, the values for the Activity in test [8] and in test [9] were 751 µEq/min and 810 µEq/min, respectively. In addition, in [7], the Ratio is 0.03.

Turning to `CC1(c2ccc(S(N)(=O)=O)cc2)Cc2cc(OCC(=O)O)c(Cl)c(Cl)c2C1=O` (configuration not stated), the Activity stood at 0.32 mEq in test [2], 0.29 mEq in [3], 0.86 mEq in test [4] and 674 uEq in [6]. Further, the Ratio in test [7] stood at 0.

As to `CC(=O)c1ccc(C2(C)Cc3cc(OCC(=O)O)c(Cl)c(Cl)c3C2=O)cc1` (configuration not stated), the Activity in test [2] was found to be 0.49 mEq; in test [3], 0.62 mEq; in [4], 0.81 mEq; in test [5], 1.63 mEq; in test [6], 608 uEq. Besides, the Ratio in test [7] is 0.08.

Consider `CC1(c2ccccc2)Cc2cc(OCc3nnn[nH]3)c(Cl)c(Cl)c2C1=O` (configuration not stated), for which the Activity in test [1] is 3 mL; in test [2], 0.28 mEq; in test [3], 0.17 mEq; in test [4], 0.2 mEq; in test [5], 0.4 mEq; in test [6], 44 uEq. In addition, the values for the Activity in test [8] and in test [9] were 279 µEq/min and 245 µEq/min, respectively. Also, the Ratio in test [7] is 0.09.

Consider `CC1(c2ccccc2)Cc2cc(OCC(=O)O)c(Cl)c(Cl)c2C1=O` (racemic) [INDACRINONE], for which the Activity amounted to 8 mL in test [1] (5 mg/kg); 0.86 mEq in [2] (3 mg/kg); 0.97 mEq in test [3] (9 mg/kg); 1.29 mEq in [4] (27 mg/kg); 1.89 mEq in test [5] (81 mg/kg); 409 uEq in test [6] (5 mg/kg). Further, the Activity came out at 920 µEq/min in test [8] (5 mg/kg) and 1010 µEq/min in [9] (5 mg/kg). Also, the Ratio in test [7] (5 mg/kg) was 0.38.

Turning to `CC1(c2ccccc2)Cc2cc(OCC(=O)O)c(Cl)c(Cl)c2C1=O` (single isomer, unassigned; (+)) [INDACRINONE], the Activity in test [1] (5 mg/kg) worked out at 4 mL; in test [2] (3 mg/kg), 0.77 mEq; in test [3] (9 mg/kg) it was 0.38 mEq; in test [4] (27 mg/kg) it was 0.71 mEq; in test [5] (81 mg/kg), 0.88 mEq; in test [6] (5 mg/kg), 221 uEq. The results for the Activity in test [8] (5 mg/kg) and in test [9] (5 mg/kg) were 221 µEq/min and 304 µEq/min, respectively. In addition, the Ratio in [7] (5 mg/kg) was 0.16.

For `CC1(c2ccccc2)Cc2cc(OCC(=O)O)c(Cl)c(Cl)c2C1=O` (single isomer, unassigned; (-)) [INDACRINONE], the Activity was determined as 1.01 mEq in test [2] (3 mg/kg); 1.21 mEq in test [3] (9 mg/kg); 1.79 mEq in test [4] (27 mg/kg); 2.71 mEq in [5] (81 mg/kg); 743 uEq in test [6] (5 mg/kg); 314 µEq/min in [8] (5 mg/kg). Moreover, in [9] (5 mg/kg), the Activity was 360 µEq/min. In addition, the Ratio in test [7] (5 mg/kg) came to 0.28.

Consider `NS(=O)(=O)c1cc(C(=O)O)c(NCc2ccco2)cc1Cl` [FUROSEMIDE], for which the Activity stood at 141 milliequivalent in test [10]; 1080 µEq/min in test [11]; 3 mL in test [12]; 0.07 mEq in [3]; 1.25 mEq in test [4]; 2.44 mEq in test [5]. Besides, the Activity in test [13] was found to be 960 milliequivalent; in [6], 1035 uEq. In addition, in test [7], the Ratio is on record as -0.02.

`NS(=O)(=O)c1cc2c(cc1Cl)NCNS2(=O)=O` [HYDROCHLOROTHIAZIDE]: the Activity in test [1] was determined as 3 mL; in test [3], 1.12 mEq; in test [6], 144 uEq; in test [8] it was 166 µEq/min; in test [9] it was 156 µEq/min.

`CCCN(CCC)S(=O)(=O)c1ccc(C(=O)O)cc1` [PROBENECID]: the Ratio in test [7] is 0.05.
